Legend:
[1] = test system: MMP- and αvβ3 integrin receptor-positive U87MG tumor; experiment: In vivo NIR fluorescence imaging of U87MG tumor-bearing mice; settings: for Clearance from the blood and other organs / Fluorescent signals in the tumor over time: 0.5 nmol injected
[2] = test system: MMP-2; experiment: In vitro MMP-2 enzyme specificity; type: biochemical
[3] = test system: U87MG tumor; experiment: Ex vivo biodistribution in tumors and organs; set-up: species or system mice; settings: tumors and organs removed after 4 h time point; n = 3
[4] = test system: U87MG cells; experiment: NIR fluorescence microscopy of fixed U87MG cells; type: cell-based, human

SMILES | NIR fluorescence signal from the tumor with MMP inhibitor ([1]; 3 nmol i.v., MMP inhibitor intratumorally injected 30 min before) | Tumor uptake with excess unlabeled c(RGDyK) ([1]; 30 min post-injection, c(RGDyK) 200 nmol) | NIR fluorescent images compared to 6 ([1]; intravenous, 3 nmol of 4, from 1 h post-injection) | Visualization of MMP expression in MMP-positive tumor ([1]; intravenous, 4 at 3 nmol, imaging for 4 h) | Recovery of fluorescence at different MMP-2 concentrations ([2]; MMP-2 0, 2, 5, 10, 20, 40 nM, 80 min incubation, n = 3) | Fluorescence recovery in the presence of MMP inhibitor ([2]; MMP-2 with homophenylalanine-hydroxamine acid based broad spectrum MMP inhibitor) | Ex vivo biodistribution [3] | Clearance from the blood and other organs ([1]; imaging for 4 h) | Fluorescent signals in the tumor over time ([1]; imaging for 4 h) | Binding with receptor blocking by excess c(RGDyK) ([4]; 30 min at 37 °C, blocking dose of c(RGDyK) 10 µM) | Fluorescent signals on cells ([4]; 30 min incubation at 37 °C, without blocking)
CCN(CC)c1ccc2nc3ccc(N=Nc4ccc(N(C)CCCC(=O)NCCCC[C@H](NC(=O)CNC(=O)[C@H](CCCNC(=N)N)NC(=O)[C@@H](NC(=O)CNC(=O)[C@H](CC(C)C)NC(=O)[C@@H]5CCCN5C(=O)CNC(=O)CCCCC[N+]5=C(C=CC=CC=C6N(CC)c7ccc8c(S(=O)(=O)O)cc(S(=O)(=O)O)cc8c7C6(C)C)C(C)(C)c6c5ccc5c(S(=O)(=O)O)cc(S(=O)(=O)O)cc65)C(C)C)C(=O)NCC(=O)NCC(=O)NCCCC[C@@H]5NC(=O)[C@@H](Cc6ccc(O)cc6)NC(=O)[C@H](CC(=O)O)NC(=O)CNC(=O)[C@H](CCCNC(=N)N)NC5=O)cc4)cc3[n+](-c3ccccc3)c2c1 [compound 4] | significantly reduced | effectively blocked | brighter NIR fluorescent images compared to 6 | enabled visualization of MMP expression in an MMP-positive tumor | dependent on the MMP-2 concentration | inhibited | predominantly activated in the tumors among other organs |  |  |  | 
N=C(N)NCCC[C@@H]1NC(=O)[C@H](CCCCN)NC(=O)[C@@H](Cc2ccc(O)cc2)NC(=O)[C@H](CC(=O)O)NC(=O)CNC1=O [compound 7, reference compound] |  |  |  |  |  |  |  | slowly cleared from the blood and other organs | gradually increased fluorescent signals in the tumor |  | 
CCN1C(=CC=CC=CC2=[N+](CCCCCC(=O)NCC(=O)N3CCC[C@H]3C(=O)N[C@@H](CC(C)C)C(=O)NCC(=O)N[C@H](C(=O)N[C@@H](CCCNC(=N)N)C(=O)NCC(=O)N[C@@H](CCCCN)C(=O)NCC(=O)NCC(=O)NCCCC[C@@H]3NC(=O)[C@@H](Cc4ccc(O)cc4)NC(=O)[C@H](CC(=O)O)NC(=O)CNC(=O)[C@H](CCCNC(=N)N)NC3=O)C(C)C)c3ccc4c(S(=O)(=O)O)cc(S(=O)(=O)O)cc4c3C2(C)C)C(C)(C)c2c1ccc1c(S(=O)(=O)[O-])cc(S(=O)(=O)O)cc21 [compound 5] |  |  |  |  |  |  |  | slowly cleared from the blood and other organs | gradually increased fluorescent signals in the tumor | significantly decreased binding | strong positive fluorescent signals on the cell membranes

Reference: paper PMC3118575 (Bioconjugate chemistry, 2011)
